Each block holds one compound with its values, some of them ahead of it. The source made the active and inactive calls. No cut-off for these calls is given here.
What was measured:
[1] = Octanol-water partition coefficient, logP of compound incubated for 24 hrs under shaking condition; assay type: physicochemical
[2] = Drug localization in peripheral edge of Escherichia coli at 10 uM incubated for 30 mins by fluorescent dye based confocal microscopic analysis; assay type: ADME; details: 0.5 h
[3] = Drug uptake in human HaCaT cells at 5 uM measured after 10 to 30 mins by fluorescence based confocal laser scanning microscopic analysis; assay type: ADME, cell-based; details: time 10-30 min
Staphylococcus aureus [4] = experiment: Antibacterial activity against methicillin resistant Staphylococcus aureus up to 80 uM by broth microdilution method; assay type: functional, organism-based; details: dose microM <=80
Escherichia coli [5] = experiment: Antibacterial activity against Escherichia coli up to 80 uM by broth microdilution method; assay type: functional, organism-based; details: dose microM <=80
Staphylococcus aureus [6] = experiment: Antibacterial activity against Staphylococcus aureus up to 80 uM by broth microdilution method; assay type: functional, organism-based; details: dose microM <=80
[7] = Induction of singlet oxygen generation in DPBF solution assessed as singlet oxygen quantum yield irradiated with 80 mW/cm2 light by DPBF-based assay; assay type: functional
Candida albicans [8] = experiment: Antifungal activity against Candida albicans up to 80 uM by broth microdilution method; assay type: functional, organism-based; details: dose microM <=80
Candida albicans [9] = experiment: Photodynamic antifungal activity against Candida albicans assessed as fungal eradication preincubated for 20 mins in dark condition followed by 18 J/cm2 LED light irradiation and measured after 18 hrs by broth microdilution method; assay type: functional; details: light or radiation study, 18.33 h, time 1100 min
Staphylococcus aureus [10] = experiment: Photodynamic antibacterial activity against methicillin resistant Staphylococcus aureus assessed as bacterial eradication preincubated for 20 mins in dark condition followed by 18 J/cm2 LED light irradiation and measured after 18 hrs by broth microdilution method; assay type: functional; details: light or radiation study, 18.33 h, time 1100 min
Escherichia coli [11] = experiment: Photodynamic antibacterial activity against Escherichia coli assessed as bacterial eradication preincubated for 20 mins in dark condition followed by 18 J/cm2 LED light irradiation and measured after 18 hrs by broth microdilution method; assay type: functional; details: light or radiation study, 18.33 h, time 1100 min
Staphylococcus aureus [12] = experiment: Photodynamic antibacterial activity against Staphylococcus aureus assessed as bacterial eradication preincubated for 20 mins in dark condition followed by 18 J/cm2 LED light irradiation and measured after 18 hrs by broth microdilution method; assay type: functional; details: light or radiation study, 18.33 h, time 1100 min
Staphylococcus aureus [13] = experiment: Antimicrobial activity against Staphylococcus aureus incubated for 36 to 48 hrs under dark conditions; assay type: functional, organism-based; details: time 36-48 hrs
Candida albicans [14] = experiment: Light dose-dependent antimicrobial activity against Candida albicans at 2 to 4 uM preincubated for 10 mins in dark followed by irradiation with 0.6 to 9J/cm2 light dose incubated for 36 to 48 hrs; assay type: functional, organism-based; details: dose 2-4 µM, time 2170-2890 min
HaCaT [15] = experiment: Phototoxicity against human HaCaT cells assessed as reduction in cell viability preincubated for 30 mins followed by irradiation with 6J/cm2 light and measured after 24 hrs by MTT assay; assay type: cell-based; details: light or radiation study
HaCaT [16] = experiment: Dark toxicity in human HaCaT cells assessed as reduction in cell viability incubated for 30 mins under dark conditions by MTT assay; assay type: cell-based; details: 0.5 h
Escherichia coli [17] = experiment: Photodynamic antimicrobial activity against Escherichia coli preincubated for 10 mins in dark followed by irradiation with 6J/cm2 light and measured after incubation for 36 to 48 hrs; assay type: functional, organism-based; details: dose 2-10 µM, time 2170-2890 min
Candida albicans [18] = experiment: Binding affinity to Candida albicans cell wall assessed as bound fraction at 25 uM measured after 3 to 10 mins; details: time 3-10 min
Staphylococcus aureus [19] = experiment: Light dose-dependent antimicrobial activity against Staphylococcus aureus at 2 to 4 uM preincubated for 10 mins in dark followed by irradiation with 0.6 to 6J/cm2 light dose incubated for 36 to 48 hrs; assay type: functional, organism-based; details: dose 2-4 µM, time 2170-2890 min
Candida albicans [20] = experiment: Photodynamic antimicrobial activity against Candida albicans preincubated for 10 mins in dark followed by irradiation with 9J/cm2 light and measured after incubation for 36 to 48 hrs; assay type: functional, organism-based; details: dose 2-10 µM, time 2170-2890 min
Cell membrane [21] = experiment: Disruption of cell membrane integrity in Escherichia coli at 2 uM irradiated with 6J/cm2 light followed by compound exposure for 10 mins by FL-4L/propidium iodide Live/dead staining based laser confocal microscopic analysis
Cell membrane [22] = experiment: Disruption of cell membrane integrity in Staphylococcus aureus at 2 uM irradiated with 6J/cm2 light followed by compound exposure for 10 mins by FL-4L/propidium iodide Live/dead staining based laser confocal microscopic analysis
Candida albicans [23] = experiment: Antimicrobial activity against Candida albicans incubated for 36 to 48 hrs under dark conditions; assay type: functional, organism-based; details: time 36-48 hrs
Staphylococcus aureus [24] = experiment: Antimicrobial activity against methicillin resistant Staphylococcus aureus incubated for 36 to 48 hrs under dark conditions; assay type: functional, organism-based; details: time 36-48 hrs
Candida albicans [25] = experiment: Disruption of cell membrane integrity in Candida albicans at 2 uM irradiated with 6J/cm2 light followed by compound exposure for 10 mins by FL-4L/propidium iodide Live/dead staining based laser confocal microscopic analysis
Staphylococcus aureus [26] = experiment: Photodynamic antimicrobial activity against methicillin resistant Staphylococcus aureus preincubated for 10 mins in dark followed by irradiation with 6J/cm2 light and measured after incubation for 36 to 48 hrs; assay type: functional, organism-based; details: dose 2-10 µM, time 2170-2890 min
Escherichia coli [27] = experiment: Binding affinity to Escherichia coli cell wall at 50 uM preincubated with 12.5 to 50 mM Ca2+ for 30 mins followed by incubation with compound for 30 mins
Cell membrane [28] = experiment: Binding affinity to Escherichia coli cell membrane assessed as reduction in zeta potential by zetasizer-based analysis; assay type: subcellular
Escherichia coli [29] = experiment: Light dose-dependent antimicrobial activity against Escherichia coli at 2 to 4 uM preincubated for 10 mins in dark followed by irradiation with 0.6 to 6J/cm2 light dose incubated for 36 to 48 hrs; assay type: functional, organism-based; details: dose 2-4 µM, time 2170-2890 min
Escherichia coli [30] = experiment: Binding affinity to Escherichia coli cell wall assessed as bound fraction at 25 uM measured after 3 to 10 mins; details: time 3-10 min
Staphylococcus aureus [31] = experiment: Binding affinity to Staphylococcus aureus cell wall assessed as bound fraction at 25 uM measured after 3 to 10 mins; details: time 3-10 min
Escherichia coli [32] = experiment: Antimicrobial activity against Escherichia coli incubated for 36 to 48 hrs under dark conditions; assay type: functional, organism-based; details: time 36-48 hrs
Candida albicans [33] = experiment: Binding affinity to Candida albicans cell wall at 50 uM preincubated with 12.5 to 50 mM Ca2+ for 30 mins followed by incubation with compound for 30 mins
Cell membrane [34] = experiment: Binding affinity to Staphylococcus aureus cell membrane assessed as reduction in zeta potential by zetasizer-based analysis; assay type: subcellular
Staphylococcus aureus [35] = experiment: Binding affinity to Staphylococcus aureus cell wall at 50 uM preincubated with 12.5 to 50 mM Ca2+ for 30 mins followed by incubation with compound for 30 mins
Staphylococcus aureus [36] = experiment: Light dose-dependent antimicrobial activity against methicillin-resistant Staphylococcus aureus at 2 to 4 uM preincubated for 10 mins in dark followed by irradiation with 0.6 to 6J/cm2 light dose incubated for 36 to 48 hrs; assay type: functional, organism-based; details: dose 2-4 µM, time 2170-2890 min
Staphylococcus aureus [37] = experiment: Photodynamic antimicrobial activity against Staphylococcus aureus preincubated for 10 mins in dark followed by irradiation with 6J/cm2 light and measured after incubation for 36 to 48 hrs; assay type: functional, organism-based; details: dose 3-18 µM, time 2170-2890 min

- logP at 24 h [1]: -1.97
- Drug uptake [2]: Active
- Drug uptake [3]: Active
Compound: CC1=CC(C)=[N+]2C1=Cc1c(C)cc(C)n1[B-]2(C#CC[N+](C)(C)C)C#CC[N+](C)(C)C.[I-].[I-]

- logP at 24 h [1]: -1.17
- Drug uptake [2]: Active
Compound: CC1=CC(C)=[N+]2C1=Cc1c(C)cc(C)n1[B-]2(OCCC[N+](C)(C)C)OCCC[N+](C)(C)C.[I-].[I-]

Compound: CC[N+](C)(CC)CCCO[B-]1(OCCC[N+](C)(CC)CC)n2c(C)c(I)c(C)c2C=C2C(C)=C(I)C(C)=[N+]21
- Activity (Staphylococcus aureus [4]): inactive
- logP at 24 h [1]: -0.93
- Activity (Escherichia coli [5]): inactive
- Activity (Staphylococcus aureus [6]): inactive
- Activity [7]: 0.75
- Activity (Candida albicans [8]): inactive
- MIC (Candida albicans [9]): 40 µM
- MIC (Staphylococcus aureus [10]): 20 µM
- MIC (Escherichia coli [11]): 40 µM
- MIC (Staphylococcus aureus [12]): 20 µM

Compound: CC1=C(I)C(C)=[N+]2C1=Cc1c(C)c(I)c(C)n1[B-]2(OCC[N+](C)(C)C)OCC[N+](C)(C)C
- Activity (Staphylococcus aureus [4]): inactive
- logP at 24 h [1]: -1.21
- Activity (Escherichia coli [5]): inactive
- Activity (Staphylococcus aureus [6]): inactive
- Activity [7]: 0.58
- Activity (Candida albicans [8]): inactive
- MIC (Candida albicans [9]): 40 µM
- MIC (Staphylococcus aureus [10]): 20 µM
- MIC (Escherichia coli [11]): 40 µM
- MIC (Staphylococcus aureus [12]): 30 µM

Compound: CC1=C(I)C(C)=[N+]2C1=Cc1c(C)c(I)c(C)n1[B-]2(C#CC[N+](C)(C)C)C#CC[N+](C)(C)C.[I-].[I-]
- Activity (Staphylococcus aureus [13]): inactive
- Activity (Candida albicans [14]): Active
- IC50 (HaCaT [15]): 4 µM
- Activity (Staphylococcus aureus [4]): inactive
- Activity (HaCaT [16]): Non-Toxic
- logP at 24 h [1]: -1.21
- Activity (Escherichia coli [17]): Dose-dependent effect
- Activity (Candida albicans [18]): 90.8%
- Activity (Escherichia coli [5]): inactive
- Activity (Staphylococcus aureus [19]): Active
- Activity (Staphylococcus aureus [6]): inactive
- Activity (Candida albicans [20]): Dose-dependent effect
- Activity (Cell membrane [21]): Active
- Activity [7]: 0.68
- Activity (Cell membrane [22]): Active
- Activity (Candida albicans [8]): inactive
- MIC (Candida albicans [9]): 1.25 µM
- Activity (Candida albicans [23]): inactive
- Activity (Staphylococcus aureus [24]): inactive
- Activity (Candida albicans [25]): Active
- Activity (Staphylococcus aureus [26]): Dose-dependent effect
- Activity (Escherichia coli [27]): inactive
- Activity (Cell membrane [28]): Active
- MIC (Staphylococcus aureus [10]): 1.25 µM
- Activity (Escherichia coli [29]): Active
- Activity (Escherichia coli [30]): 71%
- Activity (Staphylococcus aureus [31]): 85.3%
- Activity (Escherichia coli [32]): inactive
- Activity (Candida albicans [33]): inactive
- Activity (Cell membrane [34]): Active
- Activity (Staphylococcus aureus [35]): inactive
- MIC (Escherichia coli [11]): 0.625 µM
- Activity (Staphylococcus aureus [36]): Active
- MIC (Staphylococcus aureus [12]): 1.25 µM
- Activity (Staphylococcus aureus [37]): Dose-dependent effect

Compound: CC1=C(I)C(C)=[N+]2C1=Cc1c(C)c(I)c(C)n1[B-]2(OCCc1cc[n+](C)cc1)OCCc1cc[n+](C)cc1
- Activity (Staphylococcus aureus [4]): inactive
- logP at 24 h [1]: -1.14
- Activity (Candida albicans [18]): 34%
- Activity (Escherichia coli [5]): inactive
- Activity (Staphylococcus aureus [6]): inactive
- Activity (Cell membrane [21]): Active
- Activity [7]: 0.74
- Activity (Cell membrane [22]): inactive
- Activity (Candida albicans [8]): inactive
- MIC (Candida albicans [9]): 40 µM
- Activity (Candida albicans [25]): inactive
- Activity (Escherichia coli [27]): inactive
- Activity (Cell membrane [28]): Active
- MIC (Staphylococcus aureus [10]): 20 µM
- Activity (Escherichia coli [30]): 51.9%
- Activity (Staphylococcus aureus [31]): 55%
- Activity (Candida albicans [33]): inactive
- Activity (Cell membrane [34]): Active
- Activity (Staphylococcus aureus [35]): inactive
- MIC (Escherichia coli [11]): 0.625 µM
- MIC (Staphylococcus aureus [12]): 20 µM

Compound: CC[N+](C)(CC)CCO[B-]1(OCC[N+](C)(CC)CC)n2c(C)c(I)c(C)c2C=C2C(C)=C(I)C(C)=[N+]21
- Activity (Staphylococcus aureus [4]): inactive
- logP at 24 h [1]: -1.36
- Activity (Escherichia coli [5]): inactive
- Activity (Staphylococcus aureus [6]): inactive
- Activity [7]: 0.65
- Activity (Candida albicans [8]): inactive
- MIC (Candida albicans [9]): 40 µM
- MIC (Staphylococcus aureus [10]): 40 µM
- MIC (Escherichia coli [11]): 40 µM
- MIC (Staphylococcus aureus [12]): 30 µM
